CN1C(C(=O)Nc2ccccn2)=C(O)c2ccccc2S1(=O)=O
solubility (mole fraction)
Details	293.2 K	298.2 K	303.2 K	308.2 K	313.2 K
in ethanol	0.000103	0.000177	0.000334	0.000553	0.00078
in ethyl acetate	0.00426	0.00497	0.0057	0.00661	0.00741

From BigSolDB 2.1
